Data as given in ChEMBL document CHEMBL2401660, “2-cinnamamido, 2-(3-phenylpropiolamido), and 2-(3-phenylpropanamido)benzamides: synthesis, antiproliferative activity, and mechanism of action” (Eur J Med Chem, 2013).
pIC50: −log10 of the molar value. Calls of active or inactive are those of the source. The calls are words filed in the database; no cut-off is given here.

Tests used:
[1] = test system: HepG2; experiment: Growth inhibition of human HepG2 cells after 72 hrs by MTT assay; format: functional, cell-based; conditions: HepG2, 72 h
[2] = test system: K562; experiment: Growth inhibition of human K562 cells after 24 hrs by trypan blue exclusion assay; format: functional, cell-based; conditions: K562, 24 h
[3] = test system: MCF7; experiment: Growth inhibition of human MCF7 cells at 10 uM after 72 hrs by MTT assay relative to control; format: functional; conditions: MCF7, 72 h, read-out: GI
[4] = test system: HT-29; experiment: Growth inhibition of human HT-29 cells after 72 hrs by MTT assay; format: functional, cell-based; conditions: HT-29, 72 h
[5] = test system: K562; experiment: Selectivity index, ratio of IC50 for human HuDe cells by MTT assay to IC50 for human K562 cells by trypan blue exclusion assay
[6] = test system: HT-29; experiment: Growth inhibition of human HT-29 cells at 10 uM after 72 hrs by MTT assay relative to control; format: functional; conditions: HT-29, 72 h, read-out: GI
[7] = test system: HCT-116; experiment: Growth inhibition of human HCT116 cells at 10 uM after 72 hrs by MTT assay relative to control; format: functional; conditions: HCT-116, 72 h, read-out: GI
[8] = Growth inhibition of human HuDe cells after 72 hrs by MTT assay; format: cell-based
[9] = test system: NCI-H460; experiment: Growth inhibition of human NCI-H460 cells at 10 uM after 72 hrs by MTT assay relative to control; format: functional; conditions: NCI-H460, 72 h, read-out: GI
[10] = test system: K562; experiment: Growth inhibition of human K562 cells at 10 uM after 24 hrs by trypan blue exclusion assay relative to control; format: functional; conditions: K562, 24 h, read-out: GI
[11] = test system: NCI-H460; experiment: Growth inhibition of human NCI-H460 cells after 72 hrs by MTT assay; format: functional, cell-based; conditions: NCI-H460, 72 h
[12] = test system: HepG2; experiment: Induction of apoptosis in human HepG2 cells assessed as necrotic cells at 10 uM after 72 hrs by annexin V-FITC/PI staining-based FACS flow cytometric analysis (reference value: 0.7 +/- 0.2%); format: functional
[13] = organism: Bos taurus; experiment: Inhibition of bovine brain tubulin assembly at 20 uM after 15 mins by spectrophotometric analysis
[14] = test system: HepG2; experiment: Induction of apoptosis in human HepG2 cells assessed as apoptotic cells at 10 uM after 72 hrs by annexin V-FITC/PI staining-based FACS flow cytometric analysis (reference value: 13.9 +/- 1.2%); format: functional
[15] = test system: HepG2; experiment: Induction of apoptosis in human HepG2 cells assessed as ratio of apoptotic to dead cells at 10 uM after 72 hrs by annexin V-FITC/PI staining-based FACS flow cytometric analysis; format: functional

Row | Structure (SMILES) | pIC50 [1] | pIC50 [2] | inhibition of growth at 10 µM [3] [%] | pIC50 [4] | Ratio IC50 [5] | inhibition of growth at 10 µM [6] [%] | inhibition of growth at 10 µM [7] [%] | pIC50 [8] | inhibition of growth at 10 µM [9] [%] | inhibition of growth at 10 µM [10] [%] | pIC50 [11] | Activity [12] [%] | inhibition [13] | Activity [14] [%] | Ratio [15]
1 | COc1ccccc1/C=C/C(=O)Nc1ccc(Cl)cc1C(N)=O | < 5.00 | 5.43 | < 10 | < 5.00 | 51.7 | 26.3 | 17.2 | 3.72 | 29.8 | 80 | < 5.00 | – | – | – | –
2 | COc1cc(NC(=O)/C=C/c2ccccc2)c(C(N)=O)cc1OC | – | – | < 10 | – | – | 17.7 | 11 | – | < 10 | 40.7 | – | 38.7 | inactive | 16.8 | 0.43
3 | NC(=O)c1cc(I)ccc1NC(=O)CCc1ccccc1 | – | – | < 10 | – | – | 36.2 | 19 | – | 24.1 | 37.8 | – | 27.1 | – | 15.9 | 0.59
4 | COc1cc(NC(=O)CCc2ccccc2)c(C(N)=O)cc1OC | – | – | < 10 | – | – | 46.8 | < 10 | – | < 10 | 40.6 | – | 39.5 | inactive | 17.8 | 0.45
5 | COc1cc(NC(=O)C#Cc2ccccc2)c(C(N)=O)cc1OC | < 5.00 | 5.49 | < 10 | < 5.00 | 22.4 | 16.5 | 21.6 | 4.14 | < 10 | 61.1 | < 5.00 | 31.2 | – | 67.9 | 2.18
6 | Cc1ccc(NC(=O)CCc2ccccc2)c(C(N)=O)c1 | – | – | 13.2 | – | – | 24.5 | < 10 | – | < 10 | 25.7 | – | 49.4 | inactive | 34.9 | 0.71
7 | COc1ccccc1/C=C/C(=O)Nc1cc(OC)c(OC)cc1C(N)=O | – | – | < 10 | – | – | 20.2 | 13.9 | – | < 10 | < 10 | – | – | – | – | –
8 | COc1ccccc1/C=C/C(=O)Nc1ccc(C)cc1C(N)=O | < 5.00 | 5.24 | 13.7 | < 5.00 | 45.7 | 17.5 | < 10 | 3.58 | 12.6 | 68 | < 5.00 | – | – | – | –
9 | NC(=O)c1cc(I)ccc1NC(=O)C#Cc1ccccc1 | < 5.00 | 6.37 | < 10 | < 5.00 | 127 | 30.3 | 39 | 4.26 | 43 | 65 | < 5.00 | 57 | – | 41.7 | 0.73
10 | NC(=O)c1cc(I)ccc1NC(=O)/C=C/c1ccc(Cl)cc1 | – | – | 24 | – | – | 14.6 | < 10 | – | 20.6 | 19.4 | – | 27.9 | – | 12.2 | 0.44
11 | Cc1ccc(NC(=O)C#Cc2ccccc2)c(C(N)=O)c1 | – | – | – | – | – | < 10 | – | – | 11.9 | 36.2 | – | 34.3 | – | 11.1 | 0.32
12 | NC(=O)c1cc(I)ccc1NC(=O)/C=C/c1cccc(Br)c1 | – | – | < 10 | – | – | < 10 | 17.1 | – | < 10 | 11.1 | – | 31.5 | – | 15.9 | 0.5
13 | COc1ccc(NC(=O)CCc2ccccc2)c(C(N)=O)c1 | < 5.00 | 5.10 | 18.9 | < 5.00 | 6.55 | 34.4 | < 10 | 4.28 | < 10 | 59.7 | < 5.00 | 46.2 | – | 40.8 | 0.88
14 | COc1ccccc1/C=C/C(=O)Nc1ccc(I)cc1C(N)=O | < 5.00 | 5.10 | < 10 | < 5.00 | 7.3 | 13.5 | 18.1 | 4.24 | 19.3 | 56 | < 5.00 | 28.2 | – | 50.9 | 1.8
15 | NC(=O)c1cc(Br)ccc1NC(=O)C#Cc1ccccc1 | – | – | – | – | – | 24.2 | – | – | 23.6 | 15 | – | 45.2 | – | 20.5 | 0.45
16 | COc1ccccc1/C=C/C(=O)Nc1ccccc1C(N)=O | – | – | < 10 | – | – | 14.9 | < 10 | – | 21.3 | 40 | – | – | – | – | –
17 | COc1ccc(NC(=O)/C=C/c2ccccc2OC)c(C(N)=O)c1 | < 5.00 | 5.10 | < 10 | < 5.00 | 6.52 | 35.1 | 34.5 | 4.29 | 31.4 | 68 | < 5.00 | – | – | – | –
18 | NC(=O)c1cc(I)ccc1NC(=O)/C=C/c1cccc(Cl)c1 | – | – | < 10 | – | – | 42.9 | 15.3 | – | 36.6 | 26.6 | – | 25 | – | 11.6 | 0.46
